The record followed here is ChEMBL document CHEMBL5604063, “ASAP - DENV-2 NS2B-NS3 protease fluorescence dose response” (2024).

Each structure is given as a SMILES string. Several values for one entry are separate records, joined by “and”; a condition that tells them apart may be missing. Equal values may be shown once.

In this test the target is Genome polyprotein (dengue virus type 2, UniProt P29990). In kind it is functional, Thailand/16681/1984.
Chain of Genome polyprotein (P29990 1346-1475 limits assumed): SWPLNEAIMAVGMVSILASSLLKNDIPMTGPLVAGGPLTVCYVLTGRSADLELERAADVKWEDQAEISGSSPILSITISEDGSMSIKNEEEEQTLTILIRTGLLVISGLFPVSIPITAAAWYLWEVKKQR
Chain of Genome polyprotein (P29990 1476-2093 limits assumed): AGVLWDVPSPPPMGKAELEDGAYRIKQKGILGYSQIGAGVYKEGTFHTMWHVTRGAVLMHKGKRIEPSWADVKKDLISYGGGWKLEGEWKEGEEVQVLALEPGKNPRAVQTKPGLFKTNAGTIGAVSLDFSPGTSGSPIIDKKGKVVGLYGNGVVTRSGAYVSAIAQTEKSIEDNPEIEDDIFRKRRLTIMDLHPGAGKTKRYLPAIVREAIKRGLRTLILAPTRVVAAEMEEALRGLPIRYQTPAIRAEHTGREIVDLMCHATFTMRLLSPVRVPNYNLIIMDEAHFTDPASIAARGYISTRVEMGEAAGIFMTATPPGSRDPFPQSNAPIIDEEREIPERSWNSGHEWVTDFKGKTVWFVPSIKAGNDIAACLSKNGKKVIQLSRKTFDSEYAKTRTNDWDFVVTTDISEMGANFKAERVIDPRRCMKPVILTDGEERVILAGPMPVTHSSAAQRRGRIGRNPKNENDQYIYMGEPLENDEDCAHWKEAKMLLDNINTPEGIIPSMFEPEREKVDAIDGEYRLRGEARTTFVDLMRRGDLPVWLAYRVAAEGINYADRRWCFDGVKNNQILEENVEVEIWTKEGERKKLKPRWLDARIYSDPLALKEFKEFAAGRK

A word on the IC50: it is the midpoint of a concentration-inhibition curve. The low end stands for greater potency in that assay, the high end for weaker potency in that assay. On to `C#C[C@H](Nc1ccc2c(c1)CNC2)c1cccc2c1CCNC2=O`, for which the half-maximal inhibitory concentration (IC50) is above 99.5 µM.

On to `N=C(N)Nc1ccc(NC(=O)Oc2ccccc2)cc1`, for which the IC50 was above 59.8 µM.

`Cc1nnnn1Cc1ncc(Br)s1` had an IC50 above 99.5 µM.

As for `[O-][S@@+](Cc1ncccn1)c1ncccc1Br`, the half-maximal inhibitory concentration (IC50) was above 99.5 µM.

Turning to `NCc1cccc(NC(=O)[C@H](NC(=O)OCc2ccccc2)c2cccc(C3=CCCOC3)c2)c1`, the half-maximal inhibitory concentration (IC50) was above 99.5 µM.

Take `Cc1nnsc1Cn1ccc(Br)n1`: the concentration for half-maximal inhibition (IC50) was above 99.5 µM.

In turn, `NS(=O)(=O)c1ccc(N2CCC=C(c3cccc(O)c3)C2)c2ncccc12` registered an IC50 above 99.5 µM.

For the molecule `C#CCn1ccnc(N2CC[C@H](CO)C2)c1=O`, the concentration for half-maximal inhibition (IC50) was above 99.5 µM.

`Cc1ccc(CNC(=O)c2cc(Cl)ccc2NS(=O)(=O)c2ccc(Oc3ccccc3Cl)cc2)s1`: the IC50 is above 99.5 µM.

With `Cc1cc(N2CCC(NS(=O)(=O)c3ccc(Cl)cc3C(=O)O)CC2)nc(C)n1`, the IC50 was above 99.5 µM.

As to `NCc1cccc(NC(=O)[C@@H](NC(=O)OCc2ccccc2)C2CCCCC2)c1`, the IC50 was above 99.5 µM.

Regarding `c1cncc(C2CC(NCc3n[nH]c4ccccc34)C2)c1` (stereo unspecified), the IC50 was above 99.5 µM.

Take `COc1cc(NC(=O)OCc2ccccc2)cc(C(=O)Nc2cccc(CN)c2)c1`: the 50% inhibitory concentration (IC50) is above 99.5 µM.

As for `Cc1cc(C=O)c(C)n1-c1cccc(C(=O)N2CCN(C)CC2)c1`, the concentration for half-maximal inhibition (IC50) is above 99.5 µM.

`NCc1cccc(NC(=O)CN(C(=O)OCc2ccccc2)c2ccc(OCc3ccccc3)cc2)c1` registered an IC50 of 34.9 µM.

Regarding `O=C(O)c1cc(Cl)ccc1S(=O)(=O)Nc1nn(Cc2ccccc2)cc1Cl`, the IC50 is above 99.5 µM.

For `NCc1cccc(CNC(=O)[C@@H](NC(=O)OCc2ccccc2)c2ccc(OCc3ccccc3)cc2)n1`, the half-maximal inhibitory concentration (IC50) was above 99.5 µM.

Regarding `COc1cc(NS(=O)(=O)c2ccc(Oc3ccccc3Cl)cc2)c(C(=O)O)cc1Cl`, the midpoint of inhibition, the IC50, lay at 8.67 µM.

For the molecule `NCc1cccc(NC(=O)c2cc(Cl)cc(CN)c2)c1`, the half-inhibitory concentration (IC50) was above 99.5 µM.

`CN(C)Cc1cc(NC(=O)[C@@H](NC(=O)OCc2ccccc2)c2ccc(OCc3ccccc3)cc2)ccc1Cl` came in with a concentration for half-maximal inhibition (IC50) above 99.5 µM.

`NCCNC(=O)c1cc(Cl)ccc1NS(=O)(=O)c1ccc(Oc2ccccc2Cl)cc1` came in with a concentration for half-maximal inhibition (IC50) above 99.5 µM.

Molecule `CN(C)CCOc1cccc(CNC(=O)[C@@H](NC(=O)OCc2ccccc2)c2ccc(OCc3ccccc3)cc2)c1` displayed a half-maximal inhibitory concentration (IC50) above 99.5 µM.

The molecule `CN(C(=O)OCc1ccccc1)[C@H](C(=O)Nc1cccc(CN)c1)c1ccc(OCc2ccccc2)cc1` displayed a half-maximal inhibitory concentration (IC50) of 43.8 µM.

Take `NCc1cccc(NC(=O)[C@H](NC(=O)c2ccncc2)c2ccc(OCc3ccccc3)cc2)c1`: the 50% inhibitory concentration (IC50) was above 99.5 µM.

On to `O=C(O)c1cc(Cl)ccc1NS(=O)(=O)c1ccc(-c2cccnc2)cc1`, for which the IC50 came out at 91.3 µM.

The molecule `CC(C)[C@H](N)P(=O)(Oc1ccc(F)cc1)Oc1ccc(F)cc1` gave a half-inhibitory concentration (IC50) above 99.5 µM.

For the molecule `CCn1cc(C(=O)O)nc(N2CC[C@@H](CO)C2)c1=O`, the 50% inhibitory concentration (IC50) is above 99.5 µM.

`O=Cc1ccc(N2CCC(C(=O)Nc3ccc(Br)cc3O)CC2)cc1`: the IC50 stood at 33.9 µM.

Turning to `CS(=O)(=O)c1cncc(-c2cccc([C@H](NC(=O)OCc3ccccc3)C(=O)Nc3cccc(CN)c3)c2)c1`, the midpoint of inhibition, the IC50, lay at 71.4 µM.

`CCn1c(=O)c(N2CCC[C@H]2c2nncs2)nc2ccccc21` gave an IC50 above 99.5 µM.

The molecule `CC(C)c1ccc([C@@H](NC(=O)OCc2ccccc2)C(=O)Nc2cccc(CN)c2)cc1` registered an IC50 above 99.5 µM.

In turn, `CCn1ccnc(N2CC[C@H](c3cccnc3)C2)c1=O` returned an IC50 above 99.5 µM.

`NCc1ccccc1NC(=O)c1cc(Cl)cc(NC(=O)OCc2ccccc2)c1` showed a concentration for half-maximal inhibition (IC50) above 99.5 µM.

Take `O=c1[nH]c(CSc2ccccc2Cl)nc2ccsc12`: the concentration for half-maximal inhibition (IC50) was above 99.5 µM.

For the molecule `CCc1cc(C(=O)Nc2cccc(-c3nnn[nH]3)c2)sc1-c1ccc(Cl)cc1`, the IC50 is 6.08 µM and 5.66 µM.

`C[C@@H](CS(C)(=O)=O)NC(=O)c1cc(Cl)ccc1NS(=O)(=O)c1ccc(Oc2ccccc2Cl)cc1` registered a 50% inhibitory concentration (IC50) of 80.9 µM.

Regarding `NCc1cccc(NC(=O)C[C@H](NC(=O)OCc2ccccc2)c2ccc(Cl)c(F)c2)c1`, the IC50 amounted to 97.6 µM.

Regarding `NCc1cccc(NC(=O)[C@@H]2[C@@H]3CCCCC[C@@H]3[C@@H]2NC(=O)OCc2ccccc2)c1`, the concentration for half-maximal inhibition (IC50) was 22.2 µM.

`CCn1c(=O)c(N2CC[C@]3(CCSC3)C2)nc2ccccc21` displayed an IC50 above 99.5 µM.

The molecule `CCOCC(=O)N[C@H](C(=O)Nc1cccc(CN)c1)c1ccc(OCc2ccccc2)cc1` yielded an IC50 above 99.5 µM.

`Cc1cccnc1COc1ccc(S(=O)(=O)Nc2ccc(Cl)cc2C(=O)O)cc1` registered an IC50 above 99.5 µM.

Turning to `Cc1occ(C(F)(F)F)c1C(=O)N[C@H](C(=O)Nc1cccc(CN)c1)c1ccc(OCc2ccccc2)cc1`, the half-maximal inhibitory concentration (IC50) was above 99.5 µM.

For `O=C(O)c1cc(Cl)cc(NS(=O)(=O)c2ccc(Oc3ccccc3Cl)cc2)c1`, the IC50 is above 99.5 µM.

Turning to `O=C(O)c1c(F)cc(F)cc1NS(=O)(=O)c1ccc(Oc2ccccc2Cl)cc1`, the IC50 was determined as 41.5 µM.

For `O=C(O)c1cc(Cl)ccc1NS(=O)(=O)c1ccc(-c2cscn2)cc1`, half-maximal inhibition (IC50) required 87.5 µM.

On to `O=C(N[C@@H](C(=O)NCc1c[nH]cn1)c1ccc(OCc2ccccc2)cc1)OCc1ccccc1`, for which the IC50 was above 99.5 µM.

In turn, `O=C(N[C@@H](C(=O)Nc1ncc([C@H]2CCCN2)s1)c1ccc(OCc2ccccc2)cc1)OCc1ccccc1` displayed a concentration for half-maximal inhibition (IC50) above 99.5 µM.

On to `O=S1(=O)CCN(CC#Cc2ccc3sncc3c2)CC1`, for which the IC50 was above 99.5 µM.

Regarding `O=C(Nc1ccc2c(c1)CNC2)c1ncc(Br)s1`, the 50% inhibitory concentration (IC50) is above 99.5 µM.

As for `Cc1nn(C)cc1S(=O)(=O)N[C@@H](C(=O)Nc1cccc(CN)c1)c1ccc(OCc2ccccc2)cc1`, the IC50 is above 99.5 µM.

Regarding `CCn1c(=O)c(N2CC3(CCC3)C[C@@H]2C)nc2ccccc21`, the IC50 was above 99.5 µM.

The molecule `c1ccc2c(CN3CCN(c4ccncc4)CC3)c[nH]c2c1` gave a half-maximal inhibitory concentration (IC50) above 99.5 µM.

In the case of `NCCc1cccc(NC(=O)c2cc(Cl)cc(NC(=O)OCc3ccccc3)c2)c1`, the half-inhibitory concentration (IC50) is 49.7 µM and 44 µM.

Consider `NCc1cccc(NC(=O)[C@H]2[C@H]3CCCC[C@H]3[C@@H]2NC(=O)OCc2ccccc2)c1`, for which 95.5 µM corresponded to half-maximal inhibition (IC50).

Consider `O=C(O)c1cc(Cl)ccc1S(=O)(=O)Nc1ccc(CN2CCCCC2)cc1`, for which the IC50 is above 99.5 µM.

The molecule `NCc1cccc(NC(=O)[C@@H](NC(=O)OCc2ccccc2)c2cccnc2)c1` returned an IC50 above 99.5 µM.

For the molecule `CSC1(C(=O)N[C@H](CC(=O)Nc2cccc(CN)c2)c2ccc(OCc3ccccc3)c(Br)c2)CCC1`, the concentration for half-maximal inhibition (IC50) is 34.9 µM.

Molecule `O=Cc1ccc(N2CCC(C(=O)NCCN3CCc4ccccc43)CC2)cc1` displayed a concentration for half-maximal inhibition (IC50) of 20.3 µM.

Take `O=Cc1ccc(N2CCC(C(=O)NC[C@H](O)c3ccc(O)c(O)c3)CC2)cc1`: inhibition was half-maximal at 33.4 µM (IC50).

`C[C@@H](Cc1c[nH]c2ccccc12)N1CCC(c2nc3ccccc3s2)CC1` displayed an IC50 above 99.5 µM.

As for `NCc1cccc(NC(=O)[C@@H](NC(=O)c2cccnc2)c2ccc(OCc3ccccc3)cc2)c1`, the IC50 was above 99.5 µM.

`CCNC(=O)c1cn(CC)c(=O)c(N2CC[C@@H](CO)C2)n1` came in with an IC50 above 99.5 µM.

In turn, `N#Cc1csc(CSc2nnc(C(F)(F)F)s2)n1` came in with a concentration for half-maximal inhibition (IC50) above 99.5 µM.

In the case of `CCCC[C@H](NC(C)=O)C(=O)N[C@H](C(=O)NCc1ccc(C(N)=O)cc1)c1ccc(OCc2ccccc2)cc1`, the concentration for half-maximal inhibition (IC50) was above 99.5 µM.

As for `Cc1cnn(-c2cccc(-c3cccc(C4(CN)CC4)c3)c2)c1`, the half-maximal inhibitory concentration (IC50) is above 99.5 µM.

`c1ccc2[nH]c(CC3CCN(Cc4nccs4)CC3)nc2c1` yielded an IC50 above 99.5 µM.
